Tests used:
[1] = system: brain interstitial fluid (ISF) Aβ; test: In vivo microdialysis of brain interstitial fluid (ISF) Aβ with Aβ sandwich ELISA; conditions: APP/PS1+/− mice, 40 mg/kg oral gavage
Description: In vivo microdialysis was utilized to measure the basal concentration of ISF Aβ in each mouse, followed by administration via oral gavage of 40 mg/kg dose of aprepitant or vehicle (corn oil) and continued measurement of Aβ over 24 hours.
Three-four month old APP/PS1^+/− mice were implanted with unilateral guide cannula above the hippocampus followed by insertion of microdialysis probes (see, for example, In Vivo AβMicrodialysis of Example 7). Each animal recovered for 3 days between guide cannula implantation and start of microdialysis. Littermate females and males were separated randomly into each treatment group. Throughout each microdialysis study, mice were housed in special RaTurn caging systems to provide freedom of movement and ad lib food and water while the microdialysis equipment was attached. […]
Following drug administration, ISF was measured every 60 minutes for 24 hours. […] ISF APβ was immediately measured at the end of each study by Aβ sandwich ELISA. […]
In Vivo Aβ Microdialysis. […] Samples were collected every 60 or 90 minutes into a refrigerated fraction collector (Univentor Limited) in polypropylene tubes and assessed for […] by sandwich ELISA. […]
Aβ Sandwich ELISA. ISF Aβx-40 levels were measured using sandwich ELISAs as described (Hettinger et al., 2018). […]

[2] = system: APP/PS1 mice; test: Morris Water Maze test of spatial learning and memory; format: in vivo; conditions: 3 weeks oral treatment
Description: A Morris Water Maze test was used to evaluate spatial learning and memory after 3 weeks treatment with oral aprepitant or vehicle in APP/PS1 or wild type (WT) mice.
Animal Model. All experiment protocols using animals were performed ethically and in accordance with the guidelines established by the Institutional Animal Care and Use Committee at Washington University. APPswe/PS1DE9 hemizygous mice (Jackson Laboratory, RRID: MMRRC_034829.JAX) (Savonenko et al., 2003) were bred to wild type C3H/B6 mice and aged the APP/PS1^+/− offspring to 2-3.5 months for microdialysis experiments or aged to 9 months for behavioral testing. Males and females were included in each group; aprepitant treated mice n=20 (11 males, 9 females), Vehicle treated mice […] for microdialysis experiments. […]
Morris water maze (MWM) test. […] The PVC escape platform measured 11.5 cm in diameter. A digital video camera connected to a PC computer and the computer software program ANY-maze (Stoelting Co., Wood Dale, IL) tracked the swimming pathway of the mouse to the escape platform and quantified path length, latency to find escape platform, and swimming speeds. […]

How did the “average ISF Aβ levels post gavage compared to vehicle treated mice” value ([1]; Bonferroni post hoc, p=0.0002) turn out when C[C@H](O[C@@H]1OCCN(Cc2n[nH]c(=O)[nH]2)[C@H]1c1ccc(F)cc1)c1cc(C(F)(F)F)cc(C(F)(F)F)c1 [aprepitant] was run?
The value was “significantly lower”.

And the “ISF Aβ levels, change from baseline (within group)” value ([1]; hippocampal ISF measured over 24 hours, p <0.0001, vehicle (corn oil) mice did not decrease (p=0.4003))?
Its value is “significantly decreased from their baseline”.

What about the “spatial memory for the platform location (time spent in the target quadrant, probe trial)” value ([2]; compared to vehicle-treated APP/PS1 mice, preliminary data) of the same compound?
Its value is “trend for improved memory”.

And the “spatial learning (path length, learning trials)” value ([2]; n=4 vs vehicle n=3, preliminary data, trend)?
Its value is “improved spatial learning”.
